According to patent publication US20230157991A1, “PHARMACEUTICAL COMPOSITION FOR TREATING ACUTE AND CHRONIC PAIN, CONTAINING POLMACOXIB AND TRAMADOL” (CrystalGenomics, Inc., priority 2017, published 2023):

Experiments:
[1] = test system: MIA-induced osteoarthritis rat model (mechanical allodynia); assay: Analgesic efficacy: paw withdrawal threshold (Von Frey, dynamic plantar aesthesiometer) in MIA-induced osteoarthritis rats; format: in vivo, Sprague Dawley rats; details: G3 acetaminophen 300 mg/kg+tramadol HCl 30 mg/kg, G4 polmacoxib 0.3 mg/kg, G5 tramadol HCl 30 mg/kg
Protocol: To evaluate analgesic efficacy, paw withdrawal threshold (PWT, g) was measured using a dynamic planter aesthesiometer (Ugo Basile S.R.L, Italy).
Von Frey filament used in this experiment has a constant pressure during bending, thereby imparting a constant stimulation. At this time, physical allodynia appears as an avoidance response, thereby enabling quantification of the pain index.
1) The pain suppression effect was measured by imparting physical stimulation with Von Frey filament using Dynamic plantar aesthesiometer (UGO BASILE 37450, Italy).
2) Rats were placed individually in each acrylic cage, allowing the rats to stay for 15 minutes to habituate to the new environment.
3) After habituation, the aesthesiometer was set to 0 ˜ 50 g and 0 ˜ 20 s. The measurement of allodynia by stimulation of the stimulator is performed by stimulating the bottom part of the affected foot, increasing the force incrementally (0-50 g), and measuring the hind paw withdraw threshold (force at the moment when the test body avoided the stimulator:gram) in triplicate at 5 min intervals.
4) The paw withdrawal threshold (PWT) was measured in duplicate at a fixed time within 2 weeks (day 10) and within 3 weeks (day 17) after administration of the test substance.

MMP-3 = details: MIA osteoarthritis SD rats, oral once daily 3 weeks
[2] = test system: MIA-induced osteoarthritis rat model (tissues of liver and stomach); assay: Histopathology of stomach and liver (H&E); format: in vivo, Sprague Dawley rats; details: G5 tramadol HCl 30 mg/kg; for gastric tissue analysis / gastric irritation, summary in words / epithelial detachment of cardiac gland (stomach histopathology): G4 polmacoxib 0.3 mg/kg; for gastric tissue analysis / gastric irritation, summary in words: co-administration groups G6 and G7 (both doses); for epithelial detachment of cardiac gland (stomach histopathology): mild level in G3 and G4, G3 acetaminophen 300+tramadol HCl 30 mg/kg
Source text: Tissue sections were stained for histological evaluation.
1) Tissues of liver and stomach among isolated organs were sufficiently immobilized in 10% neutral buffered formalin solution, followed by general tissue treatment procedures such as trimming, dehydration and paraffin embedding to prepare tissue sections and cut them to about 4 μm. Thereafter, they were stained with Hematoxylin & Eosin (H&E) and examined microscopically.

[3] = test system: MIA-induced osteoarthritis rat model (knee joint); assay: Histological evaluation of knee joint (H&E, safranin O-fast green, modified Mankin score); format: in vivo, Sprague Dawley rats; details: compared to positive control group G3; G5 tramadol HCl 30 mg/kg, co-administration groups G6 and G7 (both doses)
Protocol: 2) The collected knee joint tissues were immobilized in 10% formalin for 24 hours, and decalcificated for 72 hours while exchanging the solution with 10% formic acid at a 24-hour time interval prior to tissue treatment. The sagittal section of the knee joint was prepared through a coronal section so that the medial and lateral condyle articular surface of femur and tibia were well identified.
3) Subsequently, after a general tissue treatment procedure such as dehydration, clearing and penetration, paraffin embedding was performed and a 5 μm thin slice of knee joint was prepared with a rotary microtome. It was subject to deparaffinization and hydration, followed by Hematoxylin & Eosin (H&E) staining.
4) For safranin-O fast green (SOFG) staining, after deparaffinization and hydration, the thin slice of knee joint was reacted in Weigert's iron hematoxylin solution (HT110232, Sigma, St Louis, USA) for 10 minutes and washed with water, and then stained in 0.02% fast green (FCF) solution (F7258, Sigma, St Louis, USA) for 5 minutes. Subsequently, it was reacted in 1% acetic acid solution and then stained with 0.1% safranin O solution (S2255, Sigma, St Louis). The slide stained with safranin O-fast green was washed for 5 minutes to have clear color of nucleus. After dehydration and clarification, it was sealed. […]

[4] = test system: MIA-induced osteoarthritis rat model (stomach, liver); assay: Gross necropsy observation after completion of the experiment; details: n=10 per group, G5 tramadol HCl 30 mg/kg, oral once daily 3 weeks
[5] = Body weight change and clinical observation in MIA-induced osteoarthritis rat model; details: MIA osteoarthritis SD rats, oral once daily 3 weeks; G3 acetaminophen 300 mg/kg+tramadol HCl 30 mg/kg, G4 polmacoxib 0.3 mg/kg, G5 tramadol HCl 30 mg/kg
Protocol: In order to evaluate therapeutic effect of osteoarthritis, an animal model of osteoarthritis was prepared in Sprague Dawley rats (n=10 per group).
1) Monosodium iodoacetate (MIA, I2512, Sigma, Poole, UK) was dissolved in 0.9% sterile saline for injection at a concentration of 60 mg/ml and prepared on the day of the experiment (day 0).
2) After group separation, animals (Sprague Dawley rats) were placed in an anesthesia chamber (Matrix, US/VME-2) and anesthetized using diethyl ether. Thereafter, subjects in the induced group (G2 to G9) were injected once with 50 μl of MIA per subject (MIA 3 mg/head) into a left knee joint space via a patellar tendon using an insulin syringe (BD™ insulin syringe with Ultra-Fine™ Short Needle, 31 gauge). The number of animals in each group was 10, and the negative control group (G1) was injected once with 50 μl of saline at the same position in the left knee joint.
Group separation was performed only on animals judged to have no quarantine abnormalities during acclimation period, followed by MIA administration. On the 6th day after MIA administration, the weight bearing of hind leg for a total of 100 subjects administered with MIA was measured and the affected subjects with high weight bearing of left hind leg were sequentially excluded to select 70 subjects. […]

[6] = 10-day evaluation, induced group G2 14.7 g
[7] = second evaluation (time not given; day 17 per method)

Row | SMILES | paw withdrawal threshold (PWT) [1, 6] [g] | paw withdrawal threshold (PWT) [1, 7] [g] | level of MMP-3 in serum obtained after 3 weeks of treatment, in words (MMP-3) | gastric tissue analysis / gastric irritation, summary in words [2] | epithelial detachment of cardiac gland (stomach histopathology) ([2]; n=10 per group) [cases] | cluster formation of chondrocytes, in words [3] | gastric wall thickening at gross necropsy ([4]; G3 acetaminophen 300 mg/kg+tramadol HCl 30 mg/kg) [cases] | gastric mucosal petechial hemorrhage at gross necropsy ([4]; G3 acetaminophen 300+tramadol HCl 30 mg/kg, G7 polmacoxib 0.3+tramadol HCl 30 mg/kg) [cases] | nodules on the surface of liver at gross necropsy [4] [case] | erosion of cardiac gland and fundic gland (stomach histopathology) ([2]; n=10 per group, oral once daily 3 weeks) [cases] | weight gain at end of test compared to average weight at beginning [5] [%]
1 | CC1(C)OC(c2ccc(S(N)(=O)=O)cc2)=C(c2cccc(F)c2)C1=O [polmacoxib, 5-(4-(aminosulfonyl)-phenyl)-2,2-dimethyl-4-(3-fluorophenyl)-3(2H)-furanone] | 24.2 | 24.2 | lower MMP-3 levels compared to the groups G3 and G5 | epithelial detachment of pyloric | 4 | – | – | – | – | – | –
2 | COc1cccc(C2(O)CCCCC2CN(C)C)c1.Cl (stereo not drawn) [tramadol hydrochloride, 2-(dimethylaminomethyl)-1-(3-methoxyphenyl)] | 26.3 | 26.3 | – | epithelial detachments of cardia and pyloric and erosion | 2 | improvement effects compared to the positive control group G3 | 3 | 3 | 1 | 4 | 18.5
